Test results as given in patent US12310962B2, “Methods and compositions for treating cancer” (Zetagen Therapeutics, Inc., priority 2019, dated 2025).
“Also recorded” adds a separate entry of the source.

How the values were obtained:
[1] = tested on: breast cancer cells (BT20); assay: LDH release cytotoxicity assay; format: cell-based; details: naloxone added for 3 hours, LDH release at 24 hours post-treatment, corrected for cell number, p<0.001
BT474 TNBC cells = assay: Tumor spheroid assay; format: cell-based; details: 1-5 mM, dose dependent
Method: (§1) FIGS. 3A-3C depict a spheroid assay showing that naloxone (an OGFR antagonist) treatment decreases tumor size in vitro. […] FIG. 3B depicts a graph showing quantification of the size of the spheroids formed in the spheroid assay described in FIG. 3A as percent change in spheroid area fraction between time 0 and 120 hours after treatment. FIG. 3C depicts a graph showing quantification of the size of the spheroids formed in the spheroid assay described in FIG. 3A as percent change in cell area fraction in each spheroid at 120 hours after treatment.
(§2) Malignant tumors are characterized by invasion of surrounding normal tissues, and the spheroid assay is a simple micro-plate method (based on uniform, self-assembling 3D tumor spheroids) that is routinely used to assess tumor growth. The effects of anti-tumor efficacy were determined by quantifying the size of the spheroids formed in the and calculate percent change in spheroid area fraction between time 0 and 120 hours after treatment as shown in FIG. 3B. The anti-tumor efficacy was also determined by quantifying the percent change in cell area fraction in each spheroid at 120 hours after treatment as determined by staining the cells with crystal violet as shown in FIG. 3C.

SaOS2 osteosarcoma cells = assay: Tumor spheroid assay; format: cell-based; details: 1-5 mM, dose dependent
Method: as §1, §2

[2] = tested on: osteosarcoma cells (SaOS2); assay: LDH release cytotoxicity assay; format: cell-based; details: naloxone added for 3 hours, LDH release at 24 hours post-treatment, corrected for cell number, p<0.001
[3] = tested on: triple negative breast cancer (TNBC) cells BT474; assay: Cell number after 72 hours of naloxone treatment; format: cell-based; details: BT474; 72 h exposure; dose dependent
[4] = Cell number after 72 hours of naloxone treatment; format: cell-based; details: cells printed as "90"; highest dose; after 72 hours
[5] = tested on: non-tumor cells, breast epithelium (HUMEC) or vascular endothelium (HUVEC); assay: Cell number of non-tumor control cells versus naloxone dose; format: cell-based; details: 72 h
BT20 = assay: Cell number after 72 hours of naloxone treatment; details: highest dose
SaOS2 cells = assay: Cell number after 72 hours of naloxone treatment; details: highest dose
[6] = tested on: breast cancer cells (BT474); assay: LDH release cytotoxicity assay; format: cell-based; details: naloxone added for 3 hours, LDH release at 24 hours post-treatment, corrected for cell number, p<0.001
[7] = between time 0 and 120 hours after treatment

SMILES: C=CCN1CC[C@]23c4c5ccc(O)c4O[C@H]2C(=O)CC[C@@]3(O)[C@H]1C5 [Naloxone, naloxone]
- increase in LDH values relative to normal (non-tumor) cells [1]: 6 fold
- tumor mass cellularity (percent change in cell area fraction, crystal violet) (BT474 TNBC cells; 120 hours after treatment): decreased
- size of the tumor masses (percent change in spheroid area fraction) (BT474 TNBC cells; [7]): reduced tumor growth; also recorded: decreased the size of the tumor masses
- tumor mass cellularity (percent change in cell area fraction, crystal violet) (SaOS2 osteosarcoma cells; 120 hours after treatment): decreased
- size of the tumor masses (percent change in spheroid area fraction) (SaOS2 osteosarcoma cells; [7]): decreased the size of the tumor masses
- increase in LDH values relative to normal (non-tumor) cells [2]: 6 fold
- number of metabolically active cells compared to control non-tumor cells (HUMEC, HUVEC) [3]: significant reduction
- decrease in cell number [4]: 90%
- dose up to which a non-tumor cell sparing effect is provided [5]: ≤ 2.5 mM
- decrease in cell number (BT20): 90%
- decrease in cell number (SaOS2 cells): 60%
- increase in LDH values relative to normal (non-tumor) cells [6]: 3 fold
